# Data: patent publication US20060276372A1, “Carotenoids, carotenoid analogs, or carotenoid derivatives for the treatment of proliferative disorders” (priority 2005, published 2006)
# Where two headings read alike, the source gives them in different places.
# Columns and labels:
# [1] = test system: human prostate cancer cells; details: cited from earlier work
# Connexin43 (Cx43) = assay: Relative Cx43 protein levels by Western blot in C3H10T1/2 cells (Example 3); format: cell-based; details: Mus musculus, C3H 10T1/2, 168 h, read-out: Fold induction of Cx43 expression
# From the text: Treatments/Compounds._TTNPB (Biomol, Plymouth Meeting, Pa.); stock 5×10^−6M in acetone, diluted 1:500 in culture media (final 10^−8 M in 0.2% acetone). Lycophyll (All-trans, 95% pure, Hawaii Biotech, Inc., Aiea, Hi.); stocks 10^−2 M and 10^−3 M in tetrahydroftiran (THF; Sigma, St. Louis, Mo.) diluted 1:1000 and stirred into culture media immediately before treatment (final 10^−5 M and 10^−6 M in 0.1% THF). Lycopene (92.7% pure, Chromadex, Inc., Santa Ana, Calif.); stocks 10^−2 M and 10^−3 M in tetrahydrofuran (Sigma, St. Louis, Mo.) diluted 1:1000 and stir into culture media immediately before treatment (final 10^−5 M and 10^−6 M in 0.1% THF). […]
# SDS-PAGE Electrophoresis, Transfer and Immunodetection. […] Lysates were sonicated and protein concentrations quantified using the BCA protein determination assay (Pierce, Rockford, Ill.). […] Protein standards were utilized to confirm molecular weight of detected protein (SeeBlue, Invitrogen, Carlsbad, Calif.). […] Cx43 protein was detected according to the manufacturer's instructions using the WesternBreeze Immunodetection Kit (Invitrogen, Carlsbad, Calif.) and a rabbit primary antibody reactive against the cytoplasmic tail of Cx43 (1:2000, Sigma, St. Louis, Mo.).
# Quantification of Relative Western Blot Cx43 Protein Levels. […]
# [2] = Determination of aqueous solubility/dispersibility; format: physicochemical; details: USP-purified water, 2 hours, supernatant by UV/Vis
# Method: Determination of aqueous solubility/dispersibility. 30.13 mg of 3 was added to 1 mL of USP-purified water. The sample was rotated for 2 hours, then centrifuged for 5 minutes. After centrifuging, solid was visible in the bottom of the tube. A 125-μL aliquot of the solution was then diluted to 25 mL. The sample was analyzed by UV/Vis spectroscopy at 436 nm, and the absorbance was compared to a standard curve compiled from 4 standards of known concentration. The concentration of the original supernatant was calculated to be 2.85 mg/mL and the absorptivity was 36.94 AU*mL/cm*mg. Slight error may have been introduced by the small size of the original aliquot.
# Next, 30.80 mg of 9 was added to 1 mL of USP-purified water. The sample was rotated for 2 hours, then centrifuged for 5 minutes. After centrifuging, solid was visible in the bottom of the tube. A 125-μL aliquot of the solution was then diluted to 25 mL. The sample was analyzed by UViis spectroscopy at 411 nm, and the absorbance was compared to a standard curve compiled from 4 standards of known concentration. […] Slight error may have been introduced by the small size of the original aliquot.
# Determination of aqueous solubility/dipsersibility of pAST. 23.70 mg of tetrasodium diphosphate astaxanthin was added to 1 ml of USP purified water. The mixture was stirred for 2 hours, and centrifuged for 5 minutes. The solution was diluted in water and analyzed by UV/vis spectroscopy at 480 nm and absorbance was compared to a standard curve compiled from 4 standards of known concentration.
# CX43 protein = CX43 protein expression in 10T1/2 cells by Western blotting (Example 1); format: cell-based, Mouse; details: 4 days
# Method: Cell lines and culture conditions. Mouse embryonic fibroblast 10T1/2 cells were cultured in Eagle's basal medium with Earle's salts supplemented with 4% fetal calf serum (Atlanta Biologicals, Norcross, Ga.), 25 μg/ml gentamicin sulfate (Sigma, St. Louis, Mo.), and passaged by trypsin/EDTA (Gibco Invitrogen, Carlsbad, Calif.) and maintained at 37° C. in a 5% CO2 atmosphere. The cells were allowed to grow until a monolayer was formed. The confluent cells were treated 7 days after seeding, unless otherwise indicated. dAST was prepared in a formulation of 20% EtOH and sterile water (0.2% final EtOH ) to minimize supramolecular aggregation, and the final concentration of EtOH in culture medium was 0.2%. CTX was dissolved in THF and added to media. TTNPB was dissolved in acetone (Sigma, St. Louis, Mo.) and cultures received a final acetone concentration of 0.1%.
# Analysis of CX43 protein expression. Expression of CX43 protein in 10T1/2 cells was assessed by Western blotting. 10T1/2 cell monolayers were treated with the indicated carotenoid derivatives or with retinoids (as a positive control for the modulation of CX43 expression) 7 days after seeding in 100 mm dishes (Fisher Scientific, Pittsburgh, Pa.). Fours days after the drug was added to the cells, the cells were harvested, total cellular protein was isolated and the total protein concentration thereof was determined using a commercially available Protein Assay Reagent kit (Pierce Chemical Co., Rockford, Ill.). 40 μg of total cellular protein was resolved on an SDS-PAGE gel, transferred to a nitrocellulose membrane, and analyzed by Western blotting using the NuPage Western blotting kit (Invitrogen, Carlsbad, Calif.). CX43 was detected using a rabbit polyclonal antibody (Zymed, San Francisco, Calif.) raised against a synthetic polypeptide corresponding to the C-terminal domain common to mouse, human and rat CX43. Equal protein loafing was verified by immunoblotting for GAPDH, the expression of which is unaffected by treatment with retinoids or carotenoids, using a rabbit polyclonal GAPDH antibody was also used (Zymed, San Francisco, Calif.). CX43 and GAPDH immunoreactive bands were visualized by chemiluminescence using an anti-rabbit HRP-conjugated secondary antibody (Pierce Chemical Co., Rockford, Ill.). Images were obtained by exposure to X-ray film as previously described and scanned for digital analysis on the Fluoro-S Imager (Bio-Rad, Richmond, Calif.).
# CX43 = CX43 plaques by indirect immunofluorescence in 10T1/2 cells; format: cell-based, Mouse; details: 10^−6 M, 4 days
# Method: Analysis of CX43 protein by indirect immunofluorescence. Expression and assembly of CX43 into plaques was assessed by immunofluorescence staining essentially as described in Rogers et al, 1990, which is incorporated herein by reference. Briefly, confluent cultures of 10T1/2 cells were grown on Permanox plastic 4-chamber slides (Nalge Nunc International, Naperville, Ill.) and treated for 4 days as described above. Cells were fixed with −20° C. methanol overnight, washed in buffer, blocked in 1% bovine serum albumin (Sigma, St. Louis, Mo.) in PBS, incubated with the rabbit anti-CX43 antibody, and visualized with Alexa568 conjugated anti-rabbit secondary antibody (Molecular Probes, Eugene, Oreg.). Images were acquired with a Zeiss Axioplan microscope and a Roper Scientific cooled CCD camera.
# 10T1/2 cells [3] = assay: Gap junctional communication, scrape-loading dye transfer assay; format: cell-based, Mouse; details: 7 days
# Method: Gap junctional communication assay. Junctional permeability was assayed by the scrape-loading dye transfer assay essentially as described in El-Fouly et al., 1987, which is incorporated herein by reference. Briefly, confluent cultures of 10T1/2 cells grown in 60 mm dishes were treated with the indicated compounds for 7 days. The treated cells were washed with Ca^+2-free phosphate-buffered saline (PBS). 1.5 ml of Lucifer Yellow CH (Sigma, St. Louis, Mo.) 0.2% in PBS was then added, and linear cuts were made on the monolayer using a surgical scalpel. The cultures were incubated for 2 minutes at 37° C. then rinsed thoroughly with PBS. The cultures were then fixed with 2 ml of 5% formaldehyde in PBS. Images were digitally quantitated by intensity thresholding using the SigmaScan software program (Jandel Scientific, San Rafael, Calif.).
# 10T1/2 cells [4] = format: cell-based, Mouse; details: for % Inhibition of MCA-induced transformation: 4 week period; for Foci/dish (mean Type II + Type III foci, 24 dishes): 4 week period after MCA
# Method: Inhibition of MCA-induced neoplastic transformation in 10T1/2 cells. Cells were initiated with methylcholanthrene (MCA) […] (Sigma, St. Louis, Mo.) in acetone for 24 hours. Potential inhibitors of neoplastic transformation were added 7 days after removal of carcinogen as indicated and were renewed weekly by adding fresh medium supplemented with the appropriate drug for four weeks after removal of the carcinogen. The cultures were fixed and stained as described above. A total of 24 dishes of cells were used per treatment group. Type II and III foci were identified and then quantitated as described in Bertram et al., 1990, which is incorporated herein by reference.
# Statistical analysis. Transformation data was analyzed by one-tailed, two-sample t-tests that incorporated unequal variances. The scrape-loading data was analyzed by paired t-tests.
smiles,measurement,setting,value
CC(C)c1ccc2c(c1)c(SC(C)(C)C)c(CC(C)(C)C(=O)O)n2Cc1ccc(Cl)cc1 [MK886],apoptosis of prostate cancer cells,[1]; Ghosh et al.,massive apoptosis
same,cells in culture killed,[1]; concentration of 10 mM,more than 90%
"CC(C)=CCC/C(C)=C/C=C/C(C)=C/C=C/C(C)=C/C=C/C=C(C)/C=C/C=C(C)/C=C/C=C(\C)CCC=C(C)C [lycopene, reference compound]",fold induction at 1 µM,Connexin43 (Cx43),1.55
same,fold induction at 10 µM,Connexin43 (Cx43),1.51
"CC1=C(/C=C/C(C)=C/C=C/C(C)=C/C=C/C=C(C)/C=C/C=C(C)/C=C/C2=C(C)C(=O)C(OP(=O)([O-])[O-])CC2(C)C)C(C)(C)CC(OP(=O)([O-])[O-])C1=O.[Na+].[Na+].[Na+].[Na+] (stereo not shown) [pAST, tetrasodium diphosphate astaxanthin]",aqueous solubility/dispersibility,[2],25.21 mg/mL
same,CX43 protein induction versus solvent-treated controls,CX43 protein; 10^−5 M,no change
same,CX43 protein induction versus solvent-treated controls,CX43 protein; 10^−6 M,about 5 fold
same,CX43 protein induction versus solvent-treated controls,CX43 protein; 10^−7 M,~2 fold
same,CX43 immunoreactive plaques at regions of cell/cell apposition,CX43,increased the prevalence of CX43 immunoreactive plaques
same,increase of GJIC (dye transfer) over untreated control cultures,10T1/2 cells [3]; 10^−9 M,approximately 4 fold
same,relative amount of GJIC over concentration range,10T1/2 cells [3]; concentrations ranging from 10^−10 to 10^−6 M,remained constant over a 4-log concentration range
same,"cumulative toxicity, monolayer formation",10T1/2 cells [4]; 10^−5 M for 4 weeks,failed to form complete monolayers
same,neoplastic transformation,10T1/2 cells [4]; 10^−5 M for 4 weeks,strongly inhibited
same,% Inhibition of MCA-induced transformation,10T1/2 cells [4]; 10^−6 M,100%
same,"Foci/dish (mean Type II + Type III foci, 24 dishes)",10T1/2 cells [4]; 10^−6 M,No foci
same,"Foci/dish (mean Type II + Type III foci, 24 dishes)","10T1/2 cells [4]; 10^−6 M, listed as drawing 75",0 foci/dish
same,% Inhibition of MCA-induced transformation,10T1/2 cells [4]; 10^−7 M,44%
same,"Foci/dish (mean Type II + Type III foci, 24 dishes)",10T1/2 cells [4]; 10^−7 M,substantially lowered levels of neoplastic transformation
same,"Foci/dish (mean Type II + Type III foci, 24 dishes)","10T1/2 cells [4]; 10^−7 M, listed as drawing 75",0.91 foci/dish
same,% Inhibition of MCA-induced transformation,10T1/2 cells [4]; 10^−8 M,36%
same,"Foci/dish (mean Type II + Type III foci, 24 dishes)",10T1/2 cells [4]; 10^−8 M,substantially lowered levels of neoplastic transformation
same,"Foci/dish (mean Type II + Type III foci, 24 dishes)","10T1/2 cells [4]; 10^−8 M, listed as drawing 75",1.04 foci/dish
